# Patent publication US20250289826A1, “PLPRO PROTEIN INHIBITOR, AND PREPARATION METHOD AND APPLICATION THEREOF” (priority 2022, published 2025)
# Target: PLpro (Severe acute respiratory syndrome coronavirus 2 (2019-nCoV) (SARS-CoV-2), UniProt P0DTD1)
# Assay: Assay for PLpro inhibitory activity (Ub-AMC fluorescence; single point inhibition test and IC50 determination)
# Assay type: biochemical
# Settings: for IC50: fluorescence measured after 15 min of reaction; for inhibition at 1 µM: read-out: inhibition of PLpro (1 μM), 1 μM test compound, 100 nM PLpro, 10 μM Ub-AMC, 37° C. 30 min; for inhibition of PLpro (1 μM): 1 μM test compound, 100 nM PLpro, 10 μM Ub-AMC, 37° C. 30 min
Structure (SMILES),IC50,inhibition at 1 µM,inhibition of PLpro (1 μM)
Cc1ccc(N2CC3CCC(C2)N3)cc1C(=O)NC1(c2cccc3cc(F)ccc23)CC1 [Example C1],83 ± 6.63 nM,97.7%,–
Cc1ccc(N2CCNCC2)cc1C(=O)NC1(c2ccc(F)c3ccccc23)CC1 [Example C2],98 ± 12.1 nM,96.4%,–
Cc1ccc(N2CC3CCC(C2)N3)cc1C(=O)NC1(c2ccc(F)c3ccccc23)CC1 [Example C3],40.1 ± 3.01 nM,96.2%,–
Cc1ccc(N2CC3CCC(C2)N3)cc1C(=O)NC1(c2cccc(-c3cccs3)c2)CC1 [Example C4],–,73.4%,–
Cc1ccc(N2CC3CCC(C2)N3C)cc1C(=O)NC1(c2cccc(-c3cccs3)c2)CC1 [Example C5],104 ± 6.02 nM,79.5%,–
Cc1ccc(N2CCNCC2)cc1C(=O)NC1(c2cccc(-c3cccs3)c2)CC1 [Example C6],–,56.5%,–
Cc1ccc(N2CC3CCC(C2)N3)cc1C(=O)NC1(c2cccc(C(C)(C)C)c2)CC1 [Example C7],–,15%,–
Cc1ccc(N2CC3CCC(C2)N3C)cc1C(=O)NC1(c2cccc(C(C)(C)C)c2)CC1 [Example C8],–,37.2%,–
Cc1ccc(N2CC(N(C)C)C2)cc1C(=O)NC1(c2cccc3cc(F)ccc23)CC1 [Example C9],52.1 ± 4.18 nM,98%,–
Cc1ccc(N2CC(N(C)C)C2)cc1C(=O)NC1(c2cccc3cc(F)c(F)cc23)CC1 [Example C10],13 ± 2.76 nM,98.2%,–
Cc1ccc(N2CC(N(C)C)C2)cc1C(=O)NC1(c2ccc(Cl)c3ccccc23)CC1 [Example C11],83.1 ± 12.7 nM,96.8%,–
COc1ccc(C2(NC(=O)c3cc(N4CC(N(C)C)C4)ccc3C)CC2)c2ccccc12 [Example C12],18.6 ± 2.3 nM,97.8%,–
Cc1ccc(N2CC(N(C)C)C2)cc1C(=O)NC1(c2ccc(Br)c3ccccc23)CC1 [Example C13],79.8 ± 6.04 nM,98.5%,–
Cc1ccc(N2CC(N(C)C)C2)cc1C(=O)NC1(c2ccc(C)c3ccccc23)CC1 [Example C14],205 ± 13.6 nM,95.1%,–
Cc1ccc(N2CC(N(C)C)C2)cc1C(=O)NC1(c2ccc(OC(F)F)c3ccccc23)CC1 [Example C15],–,–,98.0%
Cc1ccc(N2CC(N(C)C)C2)cc1C(=O)NC1(c2ccc(F)c3ccccc23)CC1 [Example C16],56.4 ± 8.48 nM,89.4%,–
Cc1ccc(N2CC(N(C)C)C2)cc1C(=O)NC1(c2cccc3c(Cl)cccc23)CC1 [Example C17],18.7 ± 5.29 nM,98.1%,–
Cc1ccc(N2CC(N(C)C)C2)cc1C(=O)NC1(c2cccc3c(F)cccc23)CC1 [Example C18],17.8 ± 1.94 nM,97.6%,–
Cc1ccc(N2CC(N(C)C)C2)cc1C(=O)NC1(c2ccccc2)CC1 [Example C19],–,4.9%,–
Cc1ccc(N2CC(N(C)C)C2)cc1C(=O)NC1(c2csc3ccccc23)CC1 [Example C20],76.5 ± 9.48 nM,91.9%,–
Cc1ccc(N2CC(N(C)C)C2)cc1C(=O)NC1(c2cccc3c2CCCC3)CC1 [Example C21],91.1 ± 8.22 nM,90.4%,–
Cc1ccc(N2CC(N(C)C)C2)cc1C(=O)NC1(c2ccc(-c3ccccc3)cc2)CC1 [Example C22],–,0%,–
Cc1ccc(N2CC(N(C)C)C2)cc1C(=O)NC1(c2cccc(-c3ccccc3)c2)CC1 [Example C23],–,5.8%,–
Cc1ccc(N2CC(N(C)C)C2)cc1C(=O)NC1(c2cccc3occc23)CC1 [Example C24],423 ± 61.4 nM,82.3%,–

Structure (SMILES),IC50,inhibition at 1 µM,inhibition of PLpro (1 μM)
Cc1ccc(N2CC(N(C)C)C2)cc1C(=O)NC1(C2=CCCc3ccccc32)CC1 [Example C25],–,55%,–
Cc1ccc(N2CC(N(C)C)C2)cc1C(=O)NC1(c2cccc3ncccc23)CC1 [Example C27],97.6 nM,–,88.3%
Cc1ccc(N2CC(N(C)C)C2)cc1C(=O)NC1(c2ccnc3ccccc23)CC1 [Example C28],129 nM,89.7%,–
Cc1ccc(N2CC(N(C)C)C2)cc1C(=O)NC1(c2ccnc3c(Cl)cccc23)CC1 [Example C29],44.9 nM,92.9%,–
COc1cccc2c(C3(NC(=O)c4cc(N5CC(N(C)C)C5)ccc4C)CC3)ccnc12 [Example C30],67.4 nM,91.5%,–
Cc1ccc(N2CCCC(N(C)C)C2)cc1C(=O)NC1(c2ccc(F)c3ccccc23)CC1 (centres unmarked) [Example C31],–,49.2%,–
Cc1ccc(N2CCCC(N(C)C)C2)cc1C(=O)NC1(c2ccnc3ccccc23)CC1 (centres unmarked) [Example C32],–,43.9%,–
Cc1ccc(N2CCS(=O)(=O)CC2)cc1C(=O)NC1(c2ccnc3ccccc23)CC1 [Example C33],–,41%,–
Cc1ccc(NC2CN3CCC2CC3)cc1C(=O)NC1(c2ccnc3ccccc23)CC1 (centres unmarked) [Example C34],–,31.1%,–
Cc1ccc(N2CCS(=O)(=O)CC2)cc1C(=O)NC1(c2ccc(F)c3ccccc23)CC1 [Example C35],–,2.6%,–
COC1(C)CN(c2ccc(C)c(C(=O)NC3(c4cccc5ncccc45)CC3)c2)C1 [Example C36],–,3.5%,–
Cc1ccc(N2CC(C(=O)O)C2)cc1C(=O)NC1(c2cccc3ncccc23)CC1 [Example C37],–,12.6%,–
COC1(C)CN(c2ccc(C)c(C(=O)NC3(c4ccc(F)c5ncccc45)CC3)c2)C1 [Example C38],–,11.7%,–
Cc1ccc(NC2CN3CCC2CC3)cc1C(=O)NC1(c2ccc(F)c3ncccc23)CC1 (centres unmarked) [Example C39],–,40.8%,–
Cc1ccc(N2CCCC(N(C)C)C2)cc1C(=O)NC1(c2ccc(F)c3ncccc23)CC1 (centres unmarked) [Example C40],–,55.2%,–
Cc1ccc(N2CCS(=O)(=O)CC2)cc1C(=O)NC1(c2ccc(F)c3ncccc23)CC1 [Example C41],–,32.8%,–
Cc1ccc(N2CCN(C(C)C)CC2)cc1C(=O)NC1(c2ccnc3ccccc23)CC1 [Example C42],–,85.2%,–
Cc1ccc(N2CCN(C3CC3)CC2)cc1C(=O)NC1(c2ccnc3ccccc23)CC1 [Example C43],–,71.9%,–
Cc1ccc(N2CCN(C(C)C)CC2)cc1C(=O)NC1(c2ccc(F)c3ncccc23)CC1 [Example C44],–,84.9%,–
Cc1ccc(N2CCN(C3CC3)CC2)cc1C(=O)NC1(c2ccc(F)c3ncccc23)CC1 [Example C45],–,81.4%,–
Cc1ccc(N2CCN(C3CC3)CC2)cc1C(=O)NC1(c2cccc3ncccc23)CC1 [Example C46],–,77.6%,–
Cc1ccc(N2CC(N(C)C)C2)cc1C(=O)NC1(c2ccc3ccccc3c2)CC1 [Example C47],–,58%,–
Cc1ccc(N2CCN(C(C)C)CC2)cc1C(=O)NC1(c2ccc(F)c3ccccc23)CC1 [Example C48],–,84.4%,–
Cc1ccc(N2CCN(C3CC3)CC2)cc1C(=O)NC1(c2ccc(F)c3ccccc23)CC1 [Example C49],–,58.4%,–

Structure (SMILES),IC50,inhibition at 1 µM,inhibition of PLpro (1 μM)
Cc1ccc(NC2CCNC2)cc1C(=O)NC1(c2ccc(F)c3ccccc23)CC1 (centres unmarked) [Example C50],–,27.8%,–
Cc1ccc(NC2CCN(C)CC2)cc1C(=O)NC1(c2ccc(F)c3ncccc23)CC1 [Example C51],–,38.4%,–
Cc1ccc(NC2CCNC2)cc1C(=O)NC1(c2ccc(F)c3ncccc23)CC1 (centres unmarked) [Example C53],–,44.9%,–
Cc1ccc(NC2CCNCC2)cc1C(=O)NC1(c2ccc(F)c3ncccc23)CC1 [Example C56],–,24.5%,–
Cc1ccc(N2CC(N(C)C)C2)cc1C(=O)NC1(c2cccc3ccsc23)CC1 [Example C57],–,92%,–
Cc1ccc(N2CC(N(C)C)C2)cc1C(=O)NC1(c2ccc(OC(F)(F)F)c3ncccc23)CC1 [Example C58],220 nM,88%,–
Cc1ccc(N2CC([N+](C)(C)[O-])C2)cc1C(=O)NC1(c2ccc(F)c3ncccc23)CC1 [Example C59],–,0%,–
Cc1ccc(N2CC(N(C)C)C2)cc1C(=O)NC1(c2ccc(F)c3[nH]c(=O)ccc23)CC1 [Example C60],–,82%,–
Cc1ccc(N2CC(N(C)C)C2)cc1C(=O)NC1(c2cc(C(F)(F)F)nc3c(C(F)(F)F)cccc23)CC1 [Example C61],–,85%,–
Cc1ccc(N2CC(N(C)C)C2)cc1C(=O)NC1(c2ccc(F)c3nc(C(F)F)ccc23)CC1 [Example C62],–,92%,–
Cc1ccc(N2CCC(O)CC2)cc1C(=O)NC1(c2ccc(F)c3ncccc23)CC1 [Example C63],–,30%,–
COc1ccc2c(C3(NC(=O)c4cc(N5CC(N(C)C)C5)ccc4C)CC3)ccc(F)c2n1 [Example C64],50.6 nM,78%,–
Cc1ccc(N2CC(C(C)(C)O)C2)cc1C(=O)NC1(c2ccc(F)c3ncccc23)CC1 [Example C65],–,22%,–
Cc1ccc(N2CC3C(N)C3C2)cc1C(=O)NC1(c2ccc(F)c3ncccc23)CC1 (centres unmarked) [Example C66],–,68%,–
Cc1ccc(N2CC(N(C)C)C2)cc1C(=O)NC1(c2ccnc3c(F)cccc23)CC1 [Example C67],36.6 nM,97.7%,–
Cc1ccc(N2CC(N(C)C)C2)cc1C(=O)NC1(c2ccc(OC(F)F)c3ccccc23)CC1 [Example C68],182 nM,98.5%,–
Cc1ccc(N2CC(N(C)C)C2)cc1C(=O)NC1(c2ccc(OC(F)F)c3ncccc23)CC1 [Example C69],29.3 nM,98.8%,–
Cc1ccc(N2CC(N(C)C)C2)cc1C(=O)NC1(c2ccc(C#N)c3ccccc23)CC1 [Example C70],40.6 nM,99.2%,–
Cc1ccc(N2CC(N(C)C)C2)cc1C(=O)NC1(c2cccc(Oc3ccccc3)c2)CC1 [Example C71],–,25%,–
Cc1ccc(N2CC(N(C)C)C2)cc1C(=O)NC1(c2ccc3c(c2)c2ccccc2n3C)CC1 [Example C72],–,91%,–
Cc1ccc(N2CC(N(C)C)C2)cc1C(=O)NC1(c2cnc(O)c3ccccc23)CC1 [Example C73],172 ± 18.1 nM,89.3%,–
COc1ncc(C2(NC(=O)c3cc(N4CC(N(C)C)C4)ccc3C)CC2)c2ccccc12 [Example C74],217 ± 22.2 nM,88.6%,–
